# Columns and labels:
# [1] = Hepatic phase I metabolism (oxidation), human microsomes; assay type: in vitro ADME; details: 10 µM, 90 min
# Description: (§1) Liver microsomes and cytosol were obtained for two organisms, horse and human. Fresh horse liver was purchased locally cut to pieces of ca. 50 g each and frozen in liquid nitrogen. Until further usage, the liver was stored at -80 °C. The preparation of microsomes and cytosol was carried out according to Balk et al. ([Balk et al., 1984]), and the protein content was determined by Bradford assay with bovine serum albumin as a reference ([Bradford, 1976]). Human liver microsomes and cytosol (150 Donors Ultrapool™) were provided by Corning, Inc. (Corning, New York, NY, USA). Besides assay-specific positive controls, all assays included stability controls, moreover, matrix influences were considered. For oxidation, additional non-oxidation controls were included. Each experiment was performed in duplicate. All stated concentrations are final concentration values. The test compounds (acetoxystachybotrylactam acetate-tryptophan 2a, 2b and acetoxystachybotrylactam acetate-tryptamine 3a, 3b ) were extended by the most biologically active derivative previously characterized by our group (acetoxystachybotrylactam acetate-agmatine 4 ) ([Steinert et al., 2022]).
# (§2) The phase I metabolism was investigated utilizing a NADPH- regenerating system. […] After centrifugation (4 °C, 10 min, 15,000 rpm), 150 µL of supernatant was diluted with 850 µL H2O, which was subsequently analyzed by HPLC-qToF-HRMS. […]
# [2] = Hepatic phase I metabolism (oxidation), horse microsomes; assay type: in vitro ADME; details: 10 µM, 90 min
# Description: as §1, §2
# [3] = Hepatic phase II sulfation, human cytosol; assay type: in vitro ADME; details: 50 µM, 4 h
# Description: as §1
# (§3) For phase II metabolism, potential sulfation and glucuronidation were investigated. For sulfation, the reaction mixture was pipetted as follows: first, ultrapure water was added and mixed with a 1 mM DTT solution (contains DTT, 100 mM phosphate buffer, 100 µM ascorbic acid, pH 7.4). Then, PAPS (100 µM) and the substance of interest (50 µM) were added, which was concluded by the addition of horse/human cytosol (10 mg protein/mL). For glucuronidation, first, ultrapure H2O, phosphate buffer (50 mM) and MgCl2 (5 mM) were added to the reaction vessel, followed by addition of the investigated substance (50 µM), UDPGA (5 µM), and horse/human microsomes (1 mg protein/mL), respectively. For both assays, the final volume was 100 µL which was subsequently incubated for 4 h at 37 °C in darkness. […] After centrifugation (4 °C, 10 min, 15,000 rpm), 150 µL of supernatant was diluted with 850 µL H2O, which was subsequently analyzed by HPLC-qToF-HRMS. […]
# [4] = Hepatic phase II sulfation, horse cytosol; assay type: in vitro ADME; details: 50 µM, 4 h
# Description: as §1, §3
# [5] = Hepatic phase II glucuronidation, human microsomes; assay type: in vitro ADME; details: human microsomes, 50 µM, 4 h
# Description: as §1
# For phase II metabolism, potential sulfation and glucuronidation were investigated. For sulfation, the reaction mixture was pipetted as follows: first, ultrapure water was added and mixed with a 1 mM DTT solution (contains DTT, 100 mM phosphate buffer, 100 µM ascorbic acid, pH 7.4). Then, PAPS (100 µM) and the substance of interest (50 µM) were added, which was concluded by the addition of horse/human cytosol (10 mg protein/mL). For glucuronidation, first, ultrapure H2O, phosphate buffer (50 mM) and MgCl2 (5 mM) were added to the reaction vessel, followed by addition of the investigated substance (50 µM), UDPGA (5 µM), and horse/human microsomes (1 mg protein/mL), respectively. For both assays, the final volume was 100 µL which was subsequently incubated for 4 h at 37 °C in darkness. Quenching and protein precipitation was achieved by adding 200 µL of cold MeCN (-20 °C). After centrifugation (4 °C, 10 min, 15,000 rpm), 150 µL of supernatant was diluted with 850 µL H2O, which was subsequently analyzed by HPLC-qToF-HRMS. For both experiments, 50 µM 7-hydroxycumarin served as positive control.
# Chromatographic separation and mass spectrometric detection were identical to the parameters already described for the fragmentation experiments for phase I and phase II glucuronidation metabolism. For sulfation, the HPLC-qToF-HRMS was operated in negative ionization mode at -4.5 kV and otherwise identical source parameters as previously described. […]
# [6] = tested on: Human liver carcinoma cells (HepG2, HB-8065); set-up: method as in Steinert et al., 2022; details: HepG2; ref Steinert et al., 2022; cited from earlier work
# [7] = tested on: lung adenocarcinoma cells (A549, CCL-185); set-up: method as in Steinert et al., 2022; details: ref Steinert et al., 2022; cited from earlier work
# plasma coagulation [8] = tested on: plasma coagulation; set-up: method as in Steinert et al., 2022; details: ref Steinert et al., 2022; cited from earlier work
# plasma coagulation [9] = tested on: plasma coagulation; set-up: method as in Steinert et al., 2022; details: ref Steinert et al., 2022; cited from earlier work; remark: listed apart in the source
# human Factor Xa = molecular target: T1, human Factor Xa (Homo sapiens, UniProt P00742); set-up: method as in Steinert et al., 2022; details: 500 nM; ref Steinert et al., 2022; cited from earlier work
# T1 construct: human Factor Xa, HFXA, > 95% purity; Molecular Innovations; purchased Molecular Innovations HFXA
# T1 sequence (P00742 235-488 limits assumed): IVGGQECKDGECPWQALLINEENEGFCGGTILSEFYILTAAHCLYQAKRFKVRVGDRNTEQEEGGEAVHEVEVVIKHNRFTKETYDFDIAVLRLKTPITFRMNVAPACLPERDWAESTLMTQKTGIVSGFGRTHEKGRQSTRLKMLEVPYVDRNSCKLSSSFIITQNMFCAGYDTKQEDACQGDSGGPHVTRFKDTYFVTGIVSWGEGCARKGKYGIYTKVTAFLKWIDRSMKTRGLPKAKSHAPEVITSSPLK
# T1 sequence (P00742 41-179 partner limits assumed): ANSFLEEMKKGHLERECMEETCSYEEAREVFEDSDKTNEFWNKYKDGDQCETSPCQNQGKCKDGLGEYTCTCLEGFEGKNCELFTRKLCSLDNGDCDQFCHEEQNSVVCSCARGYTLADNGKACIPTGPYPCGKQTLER
# human α-thrombin = tested on: human α-thrombin; set-up: method as in Steinert et al., 2022; details: 500 nM; ref Steinert et al., 2022; cited from earlier work
compound,measurement,setting,value
acetoxystachybotrylactam acetate-agmatine [Compound 4],"phase I conversion, in words",[1],fastest among the reaction products to be metabolized
same,"phase I conversion, in words",[2],fastest among the reaction products to be metabolized
same,"metabolism under sulfation conditions, in words",[3],did undergo metabolism
same,"metabolism under sulfation conditions, in words",[4],did undergo metabolism
same,"glucuronidation: conversion and formation of glucuronides, in words",[5],best conversion
same,"cytotoxicity, in words",[6],no cytotoxicity
same,"cytotoxicity, in words",[7],no cytotoxicity
same,"plasma coagulation, activated partial thromboplastin time",plasma coagulation [8],prolonged plasma coagulation
same,"plasma coagulation, prothrombin time",plasma coagulation [9],prolonged plasma coagulation
O=C(NC[C@H]1CN(c2ccc(N3CCOCC3=O)cc2)C(=O)O1)c1ccc(Cl)s1 [rivaroxaban],inhibition of FXa (positive control),human Factor Xa,99.8 ± 0.3%
"[H]/N=C(/N)c1ccc(NCc2nc3cc(C(=O)N(CCC(=O)O)c4ccccn4)ccc3n2C)cc1 [Dabigatran, dabigatran]",inhibition of thrombin (positive control),human α-thrombin,98.3 ± 0.1%

# From article PMC11621054, “Biological evaluation of semi-synthetic isoindolinone isomers produced by Stachybotrys chartarum” (Frontiers in Fungal Biology, 2024)
